Results: PubChem BioAssay AID2060513 (Molecular Pharmacology Branch, DTP, NCI, 2025)

Tested on: 299254-011-R-J1-PDC complex spheroids viability
Test: Anticancer human tumor 299254-011-R-J1-PDC patient-derived melanoma cell line growth inhibition [GQUAD]
Details: for IC50: curve of first compound; for viability, T/C: stronger effect = lower value
Description: DNA G-quadruplex Stabilizer Agents in Combinations in Complex Spheroids
A high-throughput screen of multi-cell type tumor spheroids was designed to identify active combinations of DNA G-quadruplex stabilizer agents and targeted small molecules. Complex spheroids include a stromal component modeled by human endothelial cells (HUVEC) and fibroblasts modeled by human mesenchymal stem cells (MSCs). The concentration ranges selected for each drug and investigational agent were based upon clinically achievable concentrations if the clinical Cmax of the agent was known.
Compounds. The drugs and investigational agents: pidnarulex (CX-5461; NSC782164), APTO-253 (NSC789042), BRACO-19 (NSC847499), peposertib (NSC802822), ceralasertib (NSC780249), elimusertib (NSC800525), camonsertib (NSC841442), AZD-1390 (NSC803789), olaparib (NSC753686), talazoparib (NSC767125), ART-558 (NSC835418), sotorasib (NSC818433), MRTX-1133 (NSC836407), SN-38 (NSC673596), topotecan (NSC609699), etoposide (NSC141540), doxorubicin (NSC123127), gemcitabine (NSC613327), 5-fluorouracil (NSC19893), paclitaxel (NSC125973), vemurafenib (NSC761431), panobinostat (NSC761190), R-306465 (JNJ-16241199; NSC773264), adavosertib (NSC754352), TP-3654 (NSC805149), carboplatin (NSC241240), KSQ-4279 (NSC840948), and staurosporine (NSC755774) were obtained from the National Cancer Institute (NCI) Developmental Therapeutics Program Chemical Repository (34). The FDA-approved anticancer drug set is available from the NCI Developmental Therapeutics Program. […] The stock solutions were prepared in dimethyl sulfoxide (DMSO, Sigma-Aldrich, St. Louis, MO, cat. D2650) at 800-fold the tested concentration and stored at -70 degrees C prior to their use. All drugs and investigational agents were tested over a range starting from a high concentration at or near the clinical Cmax and decreasing in half-log increments. If the clinical Cmax for an agent had not been determined, the highest concentration tested was 10 microM.
2.3 Cell Culture. All cells were maintained in an incubator at 37 degrees C and 5% CO2 with 95% humidity. The PDC lines were cultured according to standard operating procedures established by the NCI PDMR. All PDCs were thawed and cultured in Matrigel-coated flasks prepared with a working solution of 1X Ham's F-12 nutrient mix, without supplementation (Invitrogen, cat. 11765054), 100 U/mL penicillin-streptomycin (Invitrogen, cat. 15140122), and 2.5% Matrigel (Corning Inc., cat. 354248) for the first three passages. The 857933-349-R-J2-PDC line was cultured in 6C/Colon 1B media, which includes advanced DMEM/F-12 (Thermo Fisher Scientific, cat. 12634028), 10 mM HEPES (Thermo Fisher Scientific, cat. 15630080), 1X GlutaMAX supplement (Thermo Fisher Scientific, cat. 35050061), 0.1 mg/mL primocin (InvivoGen, cat. ant-pm-2), 10% defined fetal bovine serum, heat inactivated (HyClone Laboratories Inc., cat. SH30070.03HI), 50% L-WRN conditioned media (ATCC, cat. CRL-3276), 1.25 mM N-Acetyl-L-cysteine (Sigma-Aldrich, cat. A9165), 10 mM nicotinamide (Sigma-Aldrich, cat. N0636), 1X B-27 supplement (Thermo Fisher Scientific, cat. 17504044), 1X N-2 supplement (Thermo Fisher Scientific, cat. 17502048), 10 microM Y-27632 dihydrochloride (Tocris Bioscience, cat. 1254), and 50 ng/mL human EGF recombinant protein (Thermo Fisher Scientific, cat. PHG0311). The 485176-168-R4-J1-PDC line was cultured in Panc media, which includes all 6C/Colon 1B media components plus 100 ng/mL human FGF-10 (Thermo Fisher Scientific, cat. 100-26), 500 nM SB-431542 (Selleckchem, cat. S1067), and gastrin (Tocris, cat. 3006).
[…]

[1] = second compound 0.0316 µM, first compound 0.0316 µM
[2] = second compound 0.0316 µM, first compound 0.316 µM
[3] = second compound 0.1 µM, first compound 0.0316 µM
[4] = second compound 0.1 µM, first compound 0.316 µM
[5] = second compound 0.316 µM, first compound 0.0316 µM
[6] = second compound 0.316 µM, first compound 0.316 µM
[7] = second compound 1 µM, first compound 0.0316 µM
[8] = second compound 1 µM, first compound 0.316 µM
[9] = second compound 3.16 µM, first compound 0.0316 µM
[10] = second compound 3.16 µM, first compound 0.316 µM
[11] = second compound 10 µM, first compound 0.0316 µM
[12] = second compound 10 µM, first compound 0.316 µM
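Note: spheroids exposed to the agents for seven days before readout.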
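Throughout, for viability, T/C: percent viability relative to DMSO vehicle control wells = 100%.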

`COc1ccc([C@@H](O)c2cc(-c3ncnc4cc(N5CCOCC5)ccc34)c(F)cc2Cl)nn1` + Cc1cnc(CNC(=O)c2c(=O)c3ccc(N4CCCN(C)CC4)nc3n3c2sc2ccccc23)cn1 was tested, and the IC50 (second compound 0.0316 µM) was 7510 nM, the IC50 (second compound 0.1 µM) was 6850 nM and the IC50 (second compound 0.316 µM) was 3150 nM. The IC50 (second compound 1 µM) was 2790 nM, the IC50 (second compound 3.16 µM) was 2710 nM and the IC50 (second compound 10 µM) was < 31.6 nM. For the same molecule, the viability, T/C [1] was 75.6%, the viability, T/C (second compound 0.0316 µM, first compound 0.1 µM) was 87.8% and the viability, T/C [2] was 83.6%. For the same molecule, the viability, T/C (second compound 0.0316 µM, first compound 1 µM) was 82%, the viability, T/C (second compound 0.0316 µM, first compound 3.16 µM) was 83.4% and the viability, T/C (second compound 0.0316 µM, first compound 10 µM) was 39.2%. The viability, T/C [3] was 86.4%, the viability, T/C (second compound 0.1 µM, first compound 0.1 µM) was 82.5% and the viability, T/C [4] was 109%. It also gave a viability, T/C (second compound 0.1 µM, first compound 1 µM) of 88.2%, a viability, T/C (second compound 0.1 µM, first compound 3.16 µM) of 78.1% and a viability, T/C (second compound 0.1 µM, first compound 10 µM) of 36%. The viability, T/C [5] was 84%, the viability, T/C (second compound 0.316 µM, first compound 0.1 µM) was 87.4% and the viability, T/C [6] was 86.6%. It also gave a viability, T/C (second compound 0.316 µM, first compound 1 µM) of 68.1%, a viability, T/C (second compound 0.316 µM, first compound 3.16 µM) of 51.6% and a viability, T/C (second compound 0.316 µM, first compound 10 µM) of 32.4%. For the same molecule, the viability, T/C [7] was 81.5%, the viability, T/C (second compound 1 µM, first compound 0.1 µM) was 76.6% and the viability, T/C [8] was 73%. It also gave a viability, T/C (second compound 1 µM, first compound 1 µM) of 80%, a viability, T/C (second compound 1 µM, first compound 3.16 µM) of 46.6% and a viability, T/C (second compound 1 µM, first compound 10 µM) of 26.7%. The viability, T/C [9] was 67.2%, the viability, T/C (second compound 3.16 µM, first compound 0.1 µM) was 63.1% and the viability, T/C [10] was 57.2%. For the same molecule, the viability, T/C (second compound 3.16 µM, first compound 1 µM) was 62.8%, the viability, T/C (second compound 3.16 µM, first compound 3.16 µM) was 47.7% and the viability, T/C (second compound 3.16 µM, first compound 10 µM) was 23.2%. For the same molecule, the viability, T/C [11] was 0.4%, the viability, T/C (second compound 10 µM, first compound 0.1 µM) was 24.3% and the viability, T/C [12] was 45.3%. The viability, T/C (second compound 10 µM, first compound 1 µM) was 21.1%, the viability, T/C (second compound 10 µM, first compound 3.16 µM) was 0.32% and the viability, T/C (second compound 10 µM, first compound 10 µM) was 0.26%.
For `Cn1ncnc1[C@H]1c2n[nH]c(=O)c3cc(F)cc(c23)N[C@@H]1c1ccc(F)cc1` + Cc1cnc(CNC(=O)c2c(=O)c3ccc(N4CCCN(C)CC4)nc3n3c2sc2ccccc23)cn1, the IC50 (second compound 0.0316 µM) was > 316 nM, the IC50 (second compound 0.1 µM) was > 316 nM and the IC50 (second compound 0.316 µM) was > 316 nM. The IC50 (second compound 1 µM) was > 316 nM, the IC50 (second compound 3.16 µM) was > 316 nM and the IC50 (second compound 10 µM) was > 316 nM. For the same molecule, the viability, T/C (second compound 0.0316 µM, first compound 0.000999 µM) was 94.1%, the viability, T/C (second compound 0.0316 µM, first compound 0.00316 µM) was 116% and the viability, T/C (second compound 0.0316 µM, first compound 0.00999 µM) was 125%. The viability, T/C [1] was 87.5%, the viability, T/C (second compound 0.0316 µM, first compound 0.0999 µM) was 108% and the viability, T/C [2] was 105%. It also gave a viability, T/C (second compound 0.1 µM, first compound 0.000999 µM) of 97.2%, a viability, T/C (second compound 0.1 µM, first compound 0.00316 µM) of 96.2% and a viability, T/C (second compound 0.1 µM, first compound 0.00999 µM) of 91.4%. It also gave a viability, T/C [3] of 122%, a viability, T/C (second compound 0.1 µM, first compound 0.0999 µM) of 121% and a viability, T/C [4] of 90.3%. The viability, T/C (second compound 0.316 µM, first compound 0.000999 µM) was 93.4%, the viability, T/C (second compound 0.316 µM, first compound 0.00316 µM) was 91.2% and the viability, T/C (second compound 0.316 µM, first compound 0.00999 µM) was 88.3%. For the same molecule, the viability, T/C [5] was 99.1%, the viability, T/C (second compound 0.316 µM, first compound 0.0999 µM) was 111% and the viability, T/C [6] was 105%. The viability, T/C (second compound 1 µM, first compound 0.000999 µM) was 90.9%, the viability, T/C (second compound 1 µM, first compound 0.00316 µM) was 96.9% and the viability, T/C (second compound 1 µM, first compound 0.00999 µM) was 84.2%. For the same molecule, the viability, T/C [7] was 104%, the viability, T/C (second compound 1 µM, first compound 0.0999 µM) was 83.2% and the viability, T/C [8] was 94.1%. For the same molecule, the viability, T/C (second compound 3.16 µM, first compound 0.000999 µM) was 85.3%, the viability, T/C (second compound 3.16 µM, first compound 0.00316 µM) was 82.3% and the viability, T/C (second compound 3.16 µM, first compound 0.00999 µM) was 68.8%. It also gave a viability, T/C [9] of 91.2%, a viability, T/C (second compound 3.16 µM, first compound 0.0999 µM) of 74.2% and a viability, T/C [10] of 92.1%. It also gave a viability, T/C (second compound 10 µM, first compound 0.000999 µM) of 71.7%, a viability, T/C (second compound 10 µM, first compound 0.00316 µM) of 60.6% and a viability, T/C (second compound 10 µM, first compound 0.00999 µM) of 105%. For the same molecule, the viability, T/C [11] was 61.1%, the viability, T/C (second compound 10 µM, first compound 0.0999 µM) was 87.4% and the viability, T/C [12] was 61.8%.
